2 compounds from US20100010025A1, “Pyrimidine Derivatives” (Norvartis AG, priority 2006, published 2010) can be followed below.

Experiment [1] deals with T1, JAK-2 (Homo sapiens, UniProt O60674).
T1 construct: contain the kinase domain (JH-1 domain) of the full length proteins and are used as GST fusion proteins
The experiment can be described thus: JAK kinase assay (JAK-2), time-resolved fluorescence energy transfer or radiometric filter-binding/flash plate. The class given is biochemical. Conditions: GST fusion of JAK-2 kinase domain (JH-1). Here is the method: (§1) JAK-2 or JAK-3 enzymatic activity is determined using a time-resolved fluorescence energy transfer technology. The phosphorylation of a synthetic biotinylated peptide substrate (GGEEEYFELVKKKK) by either JAK-2 or JAK-3 in the presence of ATP is quantified using Europium labeled anti phosphotyrosine antibody and Streptavidin-Allophycocyanin Both JAK-2 and JAK-3 enzymes used in these assays contain the kinase domain (JH-1 domain) of the full length proteins and are used as GST fusion proteins.
(§2) Inhibitors are dissolved in DMSO. Dilutions are prepared in 90% DMSO followed by additional dilutions steps as required to perform a 8-point concentration-response.
(§3) The reaction mix consists of 5 μL of diluted compound, 10 μl of assay buffer and 5 μl of enzyme dilution. After incubation for 60 minutes at room temperature the reaction is stopped by the addition of EDTA. For detection of the product anti-phosphotyrosine antibody and Streptavidin-APC are added and after 60 minutes the samples are measured in an EnVision 2102 Multilabel Reader with excitation wavelength of 320 nm and emission at 665 nm. […] Membranes are counted after drying at ambient temperature, mounting in Packard TopCount 96-well frame, and addition of 10 μl/well of Microscint. The plates are eventually sealed and counted in a microplate scintillation counter (TopCount NXT, TopCount NXT HTS, PerkinElmer, Brussels, Belgium).

Experiment [2] concerns the target T2, JAK-3 (Homo sapiens, UniProt P52333).
T2 construct: contain the kinase domain (JH-1 domain) of the full length proteins and are used as GST fusion proteins
Nature of the experiment: JAK kinase assay (JAK-3), time-resolved fluorescence energy transfer or radiometric filter-binding/flash plate. Format: biochemical. The note with it: GST fusion of JAK-3 kinase domain (JH-1). Here is the method:
as §1, §2, §3

T2 sequence (P52333 822-1111 limits assumed, species assumed): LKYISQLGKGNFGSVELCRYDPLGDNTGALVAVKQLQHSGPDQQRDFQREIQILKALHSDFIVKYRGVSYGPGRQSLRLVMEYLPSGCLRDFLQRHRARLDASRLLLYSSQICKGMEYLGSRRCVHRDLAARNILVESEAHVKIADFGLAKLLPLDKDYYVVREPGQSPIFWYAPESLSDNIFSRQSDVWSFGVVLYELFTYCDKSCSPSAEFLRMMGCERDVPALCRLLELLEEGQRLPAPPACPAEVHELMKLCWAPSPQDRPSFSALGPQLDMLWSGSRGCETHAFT
T1 sequence (O60674 849-1124 limits assumed, species assumed): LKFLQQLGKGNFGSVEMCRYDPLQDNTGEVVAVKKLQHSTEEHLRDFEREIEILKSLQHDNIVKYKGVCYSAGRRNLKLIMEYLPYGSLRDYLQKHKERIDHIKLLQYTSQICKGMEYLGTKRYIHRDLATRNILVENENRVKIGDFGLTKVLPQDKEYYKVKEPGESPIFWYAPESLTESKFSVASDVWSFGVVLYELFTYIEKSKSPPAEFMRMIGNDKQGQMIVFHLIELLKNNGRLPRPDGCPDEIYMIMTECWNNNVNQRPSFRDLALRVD

Regarding `CNS(=O)(=O)c1ccccc1Nc1nc(Nc2cc(OC)ccc2F)ncc1C(N)=O` [Example 5, 2-(2-Fluoro-5-methoxy-phenylamino)-4-(2-methylsulfamoyl-phenylamino)-pyrimidine-5-carboxylic acid amide], the half-inhibitory concentration (IC50) (as a rule, the concentration at which inhibition is half-maximal) in experiment [1] came out at 179 nM. The compound `COc1ccc(F)c(Nc2ncc(C(N)=O)c(Nc3ccccc3N(C)S(C)(=O)=O)n2)c1` [Example 6, 2-(2-Fluoro-5-methoxy-phenylamino)-4-[2-(methanesulfonyl-methyl-amino)-phenylamino]-pyrimidine-5-carboxylic acid amide] showed a half-maximal inhibitory concentration (IC50) in experiment [2] of 26 nM.
